# Patent US20090118263A1, “Novel Adenine Compound” (priority 2005, published 2009)
# pEC50: −log10 of the molar value.
# Molecular target: T1, human TLR7 (Homo sapiens, UniProt Q9NYK1)
# T1 construct: expressed in transfected cells; host or cells: HEK293 (hTLR7/seap-293), stably transfected with the TLR7 plasmid and the NF-kB-SEAP reporter plasmid
# T1 sequence (Q9NYK1 27-1049): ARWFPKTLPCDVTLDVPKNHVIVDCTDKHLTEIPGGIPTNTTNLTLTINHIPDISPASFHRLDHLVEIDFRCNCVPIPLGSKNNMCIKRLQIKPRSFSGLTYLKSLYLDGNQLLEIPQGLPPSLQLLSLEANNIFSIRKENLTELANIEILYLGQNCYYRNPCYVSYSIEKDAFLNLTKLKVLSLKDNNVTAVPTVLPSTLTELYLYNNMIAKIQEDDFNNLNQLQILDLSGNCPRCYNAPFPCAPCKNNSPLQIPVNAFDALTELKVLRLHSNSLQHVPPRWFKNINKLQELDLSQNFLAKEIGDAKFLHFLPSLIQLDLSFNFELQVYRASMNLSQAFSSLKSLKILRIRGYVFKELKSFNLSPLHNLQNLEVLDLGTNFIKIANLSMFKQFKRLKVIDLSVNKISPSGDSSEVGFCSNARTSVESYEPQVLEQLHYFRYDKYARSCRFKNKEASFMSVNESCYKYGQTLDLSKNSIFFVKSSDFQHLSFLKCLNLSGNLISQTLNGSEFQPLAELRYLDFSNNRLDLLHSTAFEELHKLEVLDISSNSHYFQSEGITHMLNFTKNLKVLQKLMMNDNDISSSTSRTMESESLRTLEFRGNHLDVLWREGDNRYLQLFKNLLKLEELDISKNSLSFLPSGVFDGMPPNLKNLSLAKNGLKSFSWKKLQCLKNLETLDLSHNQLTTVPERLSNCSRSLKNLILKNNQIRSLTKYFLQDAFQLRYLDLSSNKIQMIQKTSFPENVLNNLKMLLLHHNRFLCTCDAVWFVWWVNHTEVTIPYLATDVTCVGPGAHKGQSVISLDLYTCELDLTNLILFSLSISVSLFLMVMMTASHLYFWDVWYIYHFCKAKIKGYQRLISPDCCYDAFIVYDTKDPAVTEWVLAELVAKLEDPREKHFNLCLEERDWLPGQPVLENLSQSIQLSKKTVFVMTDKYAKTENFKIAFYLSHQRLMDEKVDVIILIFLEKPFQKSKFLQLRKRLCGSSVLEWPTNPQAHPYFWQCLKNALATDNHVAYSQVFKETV
# Assay: Human TLR7 reporter assay (NF-kB-SEAP in HEK293 cells)
# Type: cell-based
# Conditions: HEK293 cells stably carrying human TLR7 plasmid and NF-kB-SEAP reporter plasmid; 20 hours culture; 1 nM-10 μM; absorbance 405 nm; read-out: Human TLR7 binding activity (EC50)
# Experimental: Human TLR7 Reporter Assay
# HEK293 cells in which human TLR7 or rat TLR7 plasmid and reporter plasmid (NF-kB-SEAP) are stably introduced are dispersed in DMEM broth (10% FBS, 1% NEAA, 10 ug/mL blastocidin S HCl, 100 ug/mL Zeocin), and were seeded to 96 well plate per 90 μl/well (hTLR7/seap-293:20000 cells/well, rTLR7/seap-293:25000 cells/well).
# Test compound (DMSO stock solution (2 μl) was diluted with the broth (200 μl) by 100 times) was added to the seeded cells to a 96 well plate (10 μl/well) (final concentration; 1 nM-10 μM, common ratio). After stirring by tapping side of the plate, the cells were cultured in a CO2 incubator for 20 hours. A substrate (50 μl/well) for reporter assay (substrate for SEAP, pNPP) was added to cells stimulated by test sample. Ten minutes after adding the substrate, the reaction quenching solution (4N NaOH) was added by 50 μl/well to cease enzymatic reaction. Sealing a top seal A on the plate, the absorbance was measured by a micro plate reader (405 nm).
row,SMILES,pEC50
1,"CCCCOc1nc(N)c2[nH]c(=O)n(Cc3ccc(CN(CCCN4CCOCC4)Cc4cccc(CC(=O)OC)c4)cc3)c2n1 [Example 7, 2-Butoxy-7,8-dihydro-9-(4-{N-[3-(methoxycarbonylmethyl)benzyl]-N-(3-morpholin-4-ylpropyl)aminomethyl}benzyl)-8-oxoadenine]",7.62
2,"CCCCOc1nc(N)c2[nH]c(=O)n(Cc3ccc(OCCCNCc4cccc(CC(=O)OC)c4)cc3)c2n1 [Example 3, 2-Butoxy-7,8-dihydro-9-([3-{N-[3-(methoxycarbonylmethyl)benzyl]amino}propoxy]benzyl)-8-oxoadenine]",7.69
3,"CCCCOc1nc(N)c2[nH]c(=O)n(Cc3ccc(CN(C)CCOc4cccc(CC(=O)OC)c4)cc3)c2n1 [Example 9, 2-Butoxy-7,8-dihydro-9-[4-(N-{2-[3-(methoxycarbonylmethyl)phenoxy]ethyl}-N-methylaminomethyl)benzyl]-8-oxoadenine]",7.55
4,"COCCOc1nc(N)c2[nH]c(=O)n(Cc3ccc(CN(C)CCOc4cccc(CC(=O)OC)c4)cc3)c2n1 [Example 19, 7,8-Dihydro-9-[4-{N-[2-(3-methoxycarbonylmethylphenyl-1-yl)oxyethyl]-N-methylamino}methylbenzyl]-2-(2-methoxyethoxy)-8-oxoadenine]",7.29
5,"CCCCOc1nc(N)c2[nH]c(=O)n(Cc3ccc(OCCCN(C)Cc4cccc(CC(=O)OC)c4)cc3)c2n1 [Example 1, 2-Butoxy-7,8-dihydro-9-[(3-[{N-methyl-N-[3-(methoxycarbonylmethyl)benzyl]}amino]propoxy)benzyl]-8-oxoadenine]",7.59
6,"CCCCOc1nc(N)c2[nH]c(=O)n(Cc3ccc(CN(CCCN4CCOCC4)Cc4cccc(CC(=O)O)c4)cc3)c2n1 [Example 8, 2-Butoxy-7,8-dihydro-9-(4-{N-[3-(hydroxycarbonylmethyl)benzyl]-N-(3-morpholin-4-ylpropyl)aminomethyl}benzyl)-8-oxoadenine]",6.60
7,"CCCCOc1nc(N)c2[nH]c(=O)n(Cc3ccc(CN(C)CCOc4cc(CC(=O)OC)ccc4OC)cc3)c2n1 [Example 11, 2-Butoxy-7,8-dihydro-9-[4-(N-{2-[2-methoxy-5-(methoxycarbonylmethyl)phenoxy]ethyl}-N-methylaminomethyl)benzyl]-8-oxoadenine]",7.68
8,"CCCCOc1nc(N)c2[nH]c(=O)n(Cc3ccc(OCCCCNCc4cccc(CC(=O)OC)c4)nc3)c2n1 [Example 12, 2-Butoxy-7,8-dihydro-9-{6-[4-(3-methoxycarbonylmethylbenzyl)aminobutoxy]pyridin-3-ylmethyl}-8-oxoadenine]",8.04
9,"CCCCOc1nc(N)c2[nH]c(=O)n(Cc3ccc(CN(CCCO)Cc4cccc(CC(=O)OC)c4)cc3)c2n1 [Example 5, 2-Butoxy-7,8-dihydro-9-(4-{N-(3-hydroxypropyl)-N-[3-(methoxycarbonylmethyl)benzyl]aminomethyl}benzyl)-8-oxoadenine]",7.39
10,"CCCCOc1nc(N)c2[nH]c(=O)n(Cc3ccc(OCCCCN(C)Cc4cccc(CC(=O)OC)c4)nc3)c2n1 [Example 15, 2-Butoxy-7,8-dihydro-9-[6-(4-[{N-methyl-N-[3-(methoxycarbonylmethyl)benzyl]}amino]butoxy)pyridin-3-ylmethyl]-8-oxoadenine]",8.03
11,"CCCCOc1nc(N)c2[nH]c(=O)n(Cc3ccc(OCCCCN(C)Cc4cccc(CC(=O)O)c4)nc3)c2n1 [Example 16, 2-Butoxy-7,8-dihydro-9-[6-(4-[{N-[3-(carboxymethyl)benzyl]-N-methyl}amino]butoxy)pyridin-3-ylmethyl]-8-oxoadenine]",7.53
12,"CCCCOc1nc(N)c2[nH]c(=O)n(Cc3ccc(OCCCCN(CCCN4CCOCC4)Cc4cccc(CC(=O)OC)c4)nc3)c2n1 [Example 17, 2-Butoxy-7,8-dihydro-9-(6-[4-{[N-(3-methoxycarbonylmethylbenzyl)-N-(3-morpholinopropyl)]amino}butoxy]pyridin-3-ylmethyl)-8-oxoadenine]",7.68
